Test results as given in PubChem BioAssay AID463074 (Broad Institute, 2010).
Active and inactive are the calls of the source.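 Rule for the calls: active = AC50 no more than tenfold above the top dose tested, or full inhibition at every dose with a flat fit (cut at about 19 µM in these data); inconclusive = flat curve fit with inhibition between 30% and 70%, or poor fit; inactive = AC50 more than tenfold above the top dose tested.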

System: HMLE_sh_eGFP viability, CellTiter-Glo luminescence, 72 h
Assay: viability loss of HMLE_sh_eGFP cells – cell-based, luminescence, counter-screen for HMLE_sh_ECad selective toxicity project, dose response (AID 463074);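 note: counterscreen control line to flag general toxicity for the HMLE_sh_ECad screen; potency for loss of viability as luminescence drops below DMSO wells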

Compound	AC50
O=C(/C=C/c1ccc2c(c1)OCCCO2)c1ccc2ccccc2c1O	12 µM
O=C(NNc1ccccc1Br)C(=O)n1ccc2ccccc21	8.69 µM
Clc1ccc(COC(Cn2ccnc2)c2ccc(Cl)cc2Cl)c(Cl)c1 (stereo not given)	6.47 µM
COC(=O)c1c(-c2ccc(N(C)C)cc2)sc2ccc(OC)cc12	> 19.5 µM (inactive)
O=C(NCCN1CCCC1)c1ccc2c(c1)N(Cc1cccc(Cl)c1)C(=O)c1ccccc1S2(=O)=O	> 19.5 µM (inactive)
C=CCNc1ncnc2c1ncn2C1OC(CO)C(O)C1O (stereo not given)	4.39 µM
CSc1nc(C)cc(OCC(=O)N/N=C/c2ccccc2O)n1	11 µM
C[C@H]1CCC/C=C/[C@@H]2C[C@H](O)C[C@H]2[C@H](O)/C=C/C(=O)O1	< 0.16 µM
CC(C)(C)c1ccc(Cn2nnc3c(=O)[nH]c(C4CCCN(C(=O)c5cccs5)C4)nc32)cc1 (stereo not given)	14.6 µM
CCCCCNCC(=O)Nc1cccc(C(=O)Nc2cccc(C(F)(F)F)c2)c1	13.2 µM
CCN(CC)S(=O)(=O)c1ccc(N/N=C/c2cc(OC)ccc2O)nc1	3.85 µM
COc1ccc(/C=C2\C(=O)c3ccccc3OC2c2ccccc2)cc1 (stereo not given)	1.38 µM
Clc1ccc(N/N=C/c2cccnc2)cc1	7.94 µM
COCCNC(=O)CN(C(=O)CCC(=O)Nc1ccccn1)c1ccc(C)cc1	> 19.5 µM (inactive)
COc1ccc2nc(N=Nc3ccc(O)c4ccccc34)sc2c1	3.27 µM
COc1cccc(-c2sc3ccc(OC)cc3c2C#CCC(C)O)c1 (stereo not given)	5.4 µM
COc1cc(OC)cc(-c2sc3ccc(OC)cc3c2C#CC2(N)CCCCC2)c1	3.23 µM
O=C1C2C(c3ccccc3)CC=CC2[C@H](c2ccc(C(F)(F)F)cc2)N1Cc1ccccc1 (stereo not given in full)	5.89 µM
COc1cc(SC#N)ccc1N=Cc1c(C)[nH]n(-c2ccc(C)c(C)c2)c1=O	4.52 µM
FC(F)(F)c1cc(CCN2CCNC[C@H]2Cc2cccc3ccccc23)cc(C(F)(F)F)c1	3.53 µM
Cc1ccc(/C=N/Nc2cc(C)nc(NCc3ccccc3)n2)cc1	7.16 µM
Cc1cc(N=Nc2ccc3ccccc3c2)ccc1O	6.83 µM
COc1cccc(-c2sc3ccc(OC)cc3c2-c2ccc(OCCN(C)C)cc2)c1	3.59 µM
O=C(CCCN1C(=O)/C(=C/c2ccccc2)SC1=S)NCCCn1ccnc1	> 19.5 µM (inactive)
COc1ccc(C(=O)/C=C/c2ccc(OCc3ccccc3)cc2)cc1CSCC(=O)O	5.81 µM

Compound	AC50
CCOc1ccc2nc(NC3=NC(c4ccc(OC)cc4)CC(=O)N3)nc(C)c2c1 (stereo not given)	7.28 µM
CC(C)(C)c1cc(C(=O)N/N=C/c2ccccc2O)n(-c2ccccc2)n1	4.41 µM
CCSc1nnc(-c2sc3nnc(-c4ccccc4)c(-c4ccccc4)c3c2N)o1	0.539 µM
Cc1ccc(-c2nc(NCc3ccco3)c3ccccc3n2)cc1	12.4 µM
CC[C@H](C)[C@H]1O[C@]2(CC[C@@H]1C)C[C@@H]1C[C@@H](CC=C(C)[C@@H](O[C@H]3C[C@H](OC)[C@@H](O[C@H]4C[C@H](OC)[C@@H](O)[C@H](C)O4)[C@H](C)O3)[C@@H](C)C=CC=C3CO[C@@H]4[C@H](O)C(C)=C[C@@H](C(=O)O1)[C@]34O)O2	1.78 µM
Cc1cc(C)nc(NC(=O)c2ccc(COc3ccccc3Cl)cc2)c1	0.401 µM
NCC(c1ccc(Cl)cc1Cl)c1c[nH]c2ccccc12 (stereo not given)	11.9 µM
C=CCn1c(SCCC)nc2sc3c(c2c1=O)CCc1ccccc1-3	2.26 µM
COc1ccc2c(c1)CCc1c(C(=O)N3CC4(C)CC3CC(C)(C)C4)noc1-2 (stereo not given)	< 0.16 µM
NC(=O)CC(NC(=O)Cc1cccc2ccccc12)c1ccc(NCc2ccc(F)cc2)c([N+](=O)[O-])c1 (stereo not given)	19.8 µM
O=c1[nH]c(=O)n(C2C[C@H](O)[C@@H](CO)O2)cc1C(F)(F)F (stereo not given in full)	0.946 µM
CCN(c1ccc(NC(=O)CCc2nc3sc4c(c3c(=O)[nH]2)CCCC4)cc1)C(C)C	9.45 µM
Cn1c(-c2ccccc2)cnc1NCc1ccc(-c2ccccc2)cc1	0.683 µM
O=S(=O)(c1cnc(Cl)c(Br)c1)N1CCc2ccccc21	6.77 µM
O=c1oc2ccccc2c(O)c1Cc1cc(Cl)c2cccnc2c1O	4.9 µM
CCCCCCSc1cccc(-c2nc3ccc(C)cn3c2NCc2ccccc2)c1	3.37 µM
CCNC(=O)c1c(NC(=O)c2cc(-c3cc(C)ccc3O)n[nH]2)sc2c1CCCC2	4.99 µM
CC1=CC(=O)C(C(C)C)=C/C1=C(\c1cc(C(C)C)c(OP(=O)(O)O)cc1C)c1ccccc1C(=O)O	3.6 µM
CC(=O)OCCCNc1cc(Sc2ccc(Cl)cc2)c2nonc2c1[N+](=O)[O-]	4.28 µM
COc1ccc(C(=O)/C=C2/C(=O)Nc3ccccc32)c(OC)c1	6.75 µM
FC(F)(F)c1cccc(Nc2ncnc3ccccc23)c1	1.75 µM
O=C(c1cnn2c1NC(c1ccc(Br)cc1)CC2C(F)(F)F)N1CCN2CCCC2C1 (stereo not given)	4.46 µM
O=S(=O)(Nc1nc2ccccc2nc1N1CCN(c2ccccc2F)CC1)c1ccc(Cl)cc1	5.8 µM
CCCc1ccc(O)c(N=Cc2cc(Br)cc(OCC)c2O)c1	9.03 µM
Nc1ccc(N=Nc2ccccc2)c2ccccc12	12.6 µM

Compound	AC50
COc1ccc(C2c3c(ncn(Cc4ccco4)c3=N)Oc3ccc4ccccc4c32)cc1 (stereo not given)	7.79 µM
Clc1ccc2c(N/N=C/c3ccc(Br)cc3)ccnc2c1	7.56 µM
Cc1cc(C(=O)N/N=C/c2cc(Br)cc(Br)c2OC(=O)c2cccc(F)c2)n[nH]1	3.3 µM
COCCNc1cc(-c2ccccc2)nc2cc(-c3cccc(F)c3)nn12	13 µM
CC(=O)Oc1ccc(-c2csc(Nc3cccc(C)n3)n2)cc1	8.79 µM
CCN(CC)c1ccc2cc(S(=O)(=O)c3ccc(Cl)cc3)c(=O)oc2c1	4.98 µM
Cc1nc(Nc2nc(CSc3nc4ccccc4[nH]3)cc(=O)[nH]2)nc2ccccc12	2.69 µM
CCOC(=O)/C(C#N)=C1\Nc2ccccc2N=C1N(CC(C)C)CC(C)C	8.73 µM
COc1ccc(Nc2nc(-c3ccccc3O)nc3ccccc23)cc1	4.79 µM
COc1ccccc1C1=NOC(COc2ccc3c(C)cc(=O)oc3c2)C1 (stereo not given)	0.288 µM
C=CCCC(=O)Nc1nc(C)c(-c2csc(Nc3ccc(Cl)cc3)n2)s1	3.83 µM
Nc1ccccc1N=Cc1ccc(-c2cccc(Cl)c2)o1	4.22 µM
Clc1ccc2nnnc(-c3ccccc3)c2c1	4.26 µM
CCc1ccc(N(CC(=O)Nc2nc3ccc(C)cc3s2)S(=O)(=O)c2c(C)noc2C)cc1	6 µM
COC(=O)C1=C(C)N(Cc2ccccc2)C(=NCCc2c[nH]c3ccccc23)N[C@H]1c1cccc(F)c1	7.06 µM
Cc1ccc(-c2cc(-c3ccccc3C)[nH]n2)c(O)c1	8.64 µM
Nc1ccc(CCN2CCN(c3cccc(C(F)(F)F)c3)CC2)cc1	1.42 µM
O=c1c2ccccc2nc2n1CCc1c-2[nH]c2ccccc12	> 19.5 µM (inactive)
O=C1C(Cl)=C(Nc2ccccc2)C(=O)c2ccccc21	2.19 µM
CCN(CC)c1ccc(S(=O)(=O)Nc2cc(Cl)ccc2Cl)cc1NC(=S)NC(=O)C1CCCC1	2.06 µM
CC(=O)Nc1ccc(NC(=O)CSc2ncc(C(=O)Nc3ccccc3)c(=O)n2C)cc1	5.44 µM
CC(C)(CN1CCN(Cc2ccccc2)CC1)NS(=O)(=O)c1ccccc1	8.78 µM
CCOC(=O)C(C(=O)OCC)C(Nc1ccc(Br)cc1)c1ccccc1 (stereo not given)	19.8 µM
Cc1ccc(C)c(NC(=O)/C(C#N)=C/c2cn(CC(=O)NCc3ccco3)c3ccccc23)c1	> 19.5 µM (inactive)
O=C(Nc1ccc(S(=O)(=O)N2CCOCC2)cc1)c1ccc([N+](=O)[O-])o1	5.38 µM
